Molecules are shown by their SMILES.

The nature of the first data set: log P by HPLC on reversed-phase column (EEC Directive 79/831 Annex V.A8). Type of data set: physicochemical. Conditions: HPLC on reversed-phase column (C 18), 40° C., 0.1% aqueous formic acid and acetonitrile, linear gradient 10% to 90% acetonitrile. Here is the method: In table 1, the log P values were determined in accordance with EEC Directive 79/831 Annex V.A8 by HPLC (High Performance Liquid Chromatography) on a reversed-phase column (C 18), using the method described below: Temperature: 40° C.; Mobile phases: 0.1% aqueous formic acid and acetonitrile; linear gradient from 10% acetonitrile to 90% acetonitrile. Calibration was carried out using unbranched alkan-2-ones (comprising 3 to 16 carbon atoms) with known log P values (determination of the log P values by the retention times using linear interpolation between two successive alkanones). lambda-max-values were determined using UV-spectra from 200 nm to 400 nm and the peak values of the chromatographic signals.
As a reminder, the logP is the decadic logarithm of the partition coefficient of the neutral form, usually between octanol and water. In turn, `Cn1nc(C(F)F)c(C(=O)NC2(c3cccc(C(F)(F)F)c3)CCCC2)c1Cl` [Example 109] returned a logP of 3.80.
As for `Cn1nc(C(F)F)c(C(=O)NCc2ccc3c(c2)CCCC3)c1Cl` [Example 111], the log partition coefficient (logP) came to 3.44.
On the same count and under the same terms, next, `Cn1nc(C(F)F)c(C(=O)NC(C)(C)c2cc(Cl)cc(Cl)c2)c1F` [Example 114]: 3.59; `COc1ccc(CNC(=O)c2c(C(F)F)nn(C)c2F)cc1OC` [Example 119]: 1.79; `COc1ccc(CNC(=O)c2c(C(F)F)nn(C)c2Cl)cc1OC` [Example 120]: 1.36.
`Cn1nc(C(F)F)c(C(=O)NC2(c3ccc(C(F)(F)F)cc3)CCCC2)c1Cl` [Example 122] returned a lipophilicity (logP) of 3.87.
Regarding `Cn1nc(C(F)F)c(C(=O)NCc2ccc(C(F)(F)F)cc2)c1F` [Example 123], the logP was 2.75.
On the same count and under the same terms, the same measure for `Cn1nc(C(F)F)c(C(=O)NCc2ccc(C(F)(F)F)cc2)c1Cl` [Example 124]: 2.90.
Take `Cn1nc(C(F)F)c(C(=O)NCc2ccc(Cl)cc2)c1Cl` [Example 128]: the logP came to 2.70.
With `CCOc1ccc(C2(NC(=O)c3c(C(F)F)nn(C)c3Cl)CCCC2)cc1` [Example 130], the lipophilicity (logP) was 3.59.
In turn, `COc1ccc(C2(NC(=O)c3c(C(F)F)nn(C)c3Cl)CCCC2)cc1` [Example 132] displayed a logP of 3.19.
For the compound `COc1ccc(CNC(=O)c2c(C(F)F)nn(C)c2F)cc1` [Example 134], the logP was 2.08.
On to `Cn1nc(C(F)F)c(C(=O)NCc2ccccc2Oc2ccccc2)c1Cl` [Example 143], for which the logP was 3.46.
`Cn1nc(C(F)F)c(C(=O)NCc2cccc(Oc3ccccc3)c2)c1Cl` [Example 146] returned a logP of 3.46.
In turn, `Cn1nc(C(F)F)c(C(=O)NCc2ccc(Oc3ccccc3)cc2)c1Cl` [Example 151] displayed a logP of 3.37.
Consider `CN(Cc1ccc(Oc2ccccc2)cc1)C(=O)c1c(C(F)F)nn(C)c1Cl` [Example 155], for which the logP turned out to be 3.48.
As for `Cn1nc(C(F)F)c(C(=O)NCc2ccc(OCc3ccccc3)cc2)c1Cl` [Example 160], the logP is recorded as 3.37.
Same read-out and setting: the same measure for `Cn1nc(C(F)F)c(C(=O)NCc2ccccc2-c2ccccc2)c1F` [Example 163]: 3.21; for `Cn1nc(C(F)F)c(C(=O)NCc2ccccc2-c2ccccc2)c1Cl` [Example 164]: 3.39; for `Cn1nc(C(F)F)c(C(=O)NCc2cccc(-c3ccccc3)c2)c1Cl` [Example 165]: 3.33.
Compound `Cn1nc(C(F)F)c(C(=O)NCc2ccc(-c3ccccc3)cc2)c1Cl` [Example 168] gave a logP of 3.35.
For the compound `Cn1nc(C(F)F)c(C(=O)NC2(c3ccccn3)CCCC2)c1Cl` [Example 171], the logP is reported as 1.30.
The compound `Cn1nc(C(F)F)c(C(=O)NC2(c3ccccn3)CCCC2)c1F` [Example 172] came in with a logP of 1.13.
Take `CN(Cc1cc(Cl)ccn1)C(=O)c1c(C(F)F)nn(C)c1Cl` [Example 173]: the logP is given as 2.01.
`Cn1nc(C(F)F)c(C(=O)NCc2ncc(C(F)(F)F)cc2Cl)c1Cl` [Example 178] displayed a log partition coefficient (logP) of 3.08.
`Cn1nc(C(F)F)c(C(=O)N(Cc2ncc(Cl)cc2Cl)C2CCCC2)c1F` [Example 183] registered a logP of 3.85.
`CC(c1ncc(Cl)cc1Cl)N(C)C(=O)c1c(C(F)F)nn(C)c1Cl` (centres unmarked) [Example 186] gave a logP of 3.11.
Still for that read-out and setting: next, `Cn1nc(C(F)F)c(C(=O)N(Cc2ncc(C(F)(F)F)cc2Cl)C2CCCC2)c1Cl` [Example 189]: 4.21.
On the same count and under the same terms, the same measure for `Cn1nc(C(F)F)c(C(=O)N(Cc2ncc(C(F)(F)F)cc2Cl)C2CCCC2)c1F` [Example 190]: 3.96.

Still in this data set, the particulars now being: HPLC, reversed-phase C 18, 40° C., 0.1% aqueous formic acid and acetonitrile, linear gradient 10% to 90% acetonitrile.
`Cn1nc(C(F)F)c(C(=O)NC(C#N)c2ccccc2)c1F` (racemic) [Example 3]: the logP was determined as 2.07.
In the case of `Cn1nc(C(F)F)c(C(=O)NC(C#N)c2ccccc2)c1Cl` (racemic) [Example 4], the logP is given as 2.20.
With `Cn1nc(C(F)F)c(C(=O)NC(C#N)c2cc(F)ccc2F)c1Cl` (racemic) [Example 7], the logP came out at 2.31.
In turn, `Cn1nc(C(F)F)c(C(=O)NC(C#N)c2cc(F)ccc2F)c1F` (racemic) [Example 8] came in with a lipophilicity (logP) of 2.01.
Still for that read-out and setting: next, `Cn1nc(C(F)F)c(C(=O)NC(C)(C)c2c(F)cccc2F)c1F` [Example 9]: 4.19; `Cn1nc(C(F)F)c(C(=O)NC(C)(C)c2c(F)cccc2F)c1Cl` [Example 10]: 3.89.
For `CCc1ccccc1CN(CC#N)C(=O)c1c(C(F)F)nn(C)c1F` [Example 11], the logP was determined as 2.68.
Turning to `CCc1ccccc1CN(C(=O)c1c(C(F)F)nn(C)c1F)C(C)C` [Example 14], the logP is recorded as 3.39.
Take `Cn1nc(C(F)F)c(C(=O)NCc2ccccc2Cl)c1Cl` [Example 21]: the logP turned out to be 2.69.
For the compound `Cn1nc(C(F)F)c(C(=O)NCc2ccccc2Cl)c1F` [Example 25], the logP was 2.50.
Compound `Cn1nc(C(F)F)c(C(=O)NCc2ccc(Cl)cc2Cl)c1Cl` [Example 34] registered a logP of 4.19.
Regarding `CN(Cc1ccc(Cl)cc1Cl)C(=O)c1c(C(F)F)nn(C)c1Cl` [Example 42], the logP was determined as 3.37.
On the same count and under the same terms, the same measure for `Cn1nc(C(F)F)c(C(=O)NCc2cc(Cl)ccc2Cl)c1Cl` [Example 47]: 4.39; for `Cn1nc(C(F)F)c(C(=O)NC2(c3cc(Cl)ccc3Cl)CC2)c1Cl` [Example 48]: 4.19; for `CN(Cc1cc(Cl)ccc1Cl)C(=O)c1c(C(F)F)nn(C)c1Cl` [Example 57]: 3.23.
In turn, `CN(Cc1cc(Cl)ccc1Cl)C(=O)c1c(C(F)F)nn(C)c1F` [Example 58] yielded a logP of 3.02.
As to `Cn1nc(C(F)F)c(C(=O)NCc2c(Cl)cccc2Cl)c1Cl` [Example 59], the logP came to 3.89.
With `Cn1nc(C(F)F)c(C(=O)NCc2c(Cl)cccc2Cl)c1F` [Example 60], the logP came out at 4.39.
On the same count and under the same terms, next, `CC(c1c(Cl)cccc1Cl)N(C)C(=O)c1c(C(F)F)nn(C)c1Cl` (centres unmarked) [Example 63]: 3.25; `Cn1nc(C(F)F)c(C(=O)NCc2ccccc2C2CC2)c1Cl` [Example 66]: 2.98.
The compound `CC(C)c1ccccc1CN(C(=O)c1c(C(F)F)nn(C)c1F)C(C)C` [Example 69] gave a logP of 3.70.
As for `CON(Cc1ccccc1C(C)C)C(=O)c1c(C(F)F)nn(C)c1Cl` [Example 77], the logP is on record as 3.51.
The compound `Cn1nc(C(F)F)c(C(=O)N(Cc2cc(Cl)ccc2C(F)(F)F)C2CSC2)c1Cl` [Example 86] showed a logP of 4.08.
Turning to `Cn1nc(C(F)F)c(C(=O)NCc2c(F)cccc2C(F)(F)F)c1F` [Example 95], the lipophilicity (logP) worked out at 2.69.
As to `Cn1nc(C(F)F)c(C(=O)NCc2c(F)cccc2C(F)(F)F)c1Cl` [Example 96], the logP came out at 2.86.
As for `Cn1nc(C(F)F)c(C(=O)N(CC#N)Cc2ccccc2[Si](C)(C)C)c1F` [Example 97], the logP worked out at 3.52.
On to `CC(C)N(Cc1ccccc1[Si](C)(C)C)C(=O)c1c(C(F)F)nn(C)c1F` [Example 102], for which the logP is recorded as 4.37.

The values above are taken from US9084424B2, “N-benzyl heterocyclic carboxamides” (BAYER INTELLECTUAL PROPERTY GMBH, priority 2010, dated 2015).
